Here are results for eleven compounds from ChEMBL document CHEMBL1201862, “PubChem BioAssay data set” (2004).

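The compound was tested at five concentrations on cells cultured in 96-well plates, with a 48-hour exposure period. At the GI50, growth is halved.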 Calls of active or inactive are those of the source. Rule as the data show it: active = GI50 up to about 1.1 µM and inactive = higher.

Some test systems named below: CAKI-1; HCT-116; HCT-15; HOP-62; HT-29; Hs-578T; MCF7; MDA-MB-231; NCI-H226; NCI-H23; NCI-H460; OVCAR-3; SF-268; SK-OV-3; SW-620; U-251; UACC-62; UO-31; MOLT-4.
Experiment in all cases: NCI-60 cell line screen, 48 h

Regarding `N=C(N)N/N=C/c1c(-c2ccc(Cl)c(Cl)c2Cl)nc2sccn12`, the GI50 was 1.82 µM (inactive) in the test on CAKI-1; 1.55 µM (inactive) in the test on HCT-116; 1.63 µM with HCT-15; 1.69 µM (inactive) in the test on HOP-62; 1.64 µM (inactive) in the test with HT-29; 1.91 µM (inactive) with Hs-578T. For the same compound, the GI50 is 2.05 µM (inactive) in the test with MCF7; 1.21 µM (inactive) with MDA-MB-231; 1.68 µM (inactive) in the test on NCI-H226; 1.29 µM (inactive) with NCI-H23; 1.7 µM (inactive) in the test on NCI-H460; 1.57 µM (inactive) with OVCAR-3. In addition, the GI50 in the test on SF-268 was 1.76 µM (inactive); in the test on SK-OV-3 it was 1.91 µM (inactive); in the test with SW-620, 1.69 µM (inactive); in the test with U-251, 1.2 µM (inactive); with UACC-62, 1.44 µM (inactive); in the test on UO-31 it was 1.46 µM (inactive).
Consider `CC1=CC(C)(C)Nc2ccc(CSc3ccccc3)cc21`, for which the GI50 in the test with CAKI-1 was 36.1 µM (inactive); with HCT-116, 26.4 µM (inactive); in the test with HCT-15, 30.9 µM; with HOP-62 it was 29.7 µM (inactive); in the test on HT-29 it was 16.1 µM (inactive); with Hs-578T, 38.3 µM (inactive). Moreover, the GI50 with MCF7 was 22 µM (inactive); in the test with MDA-MB-231, 32.9 µM (inactive); with NCI-H226 it was 48.4 µM (inactive); in the test with NCI-H23, 32.6 µM (inactive); in the test on NCI-H460, 24.9 µM (inactive); in the test on OVCAR-3, 18.7 µM (inactive). For the same compound, the GI50 in the test with SF-268 is 35.3 µM (inactive); in the test with SK-OV-3 it was 31.3 µM (inactive); in the test on SW-620, 23 µM (inactive); in the test with U-251 it was 31.8 µM (inactive); in the test with UACC-62, 41.1 µM (inactive); in the test on UO-31, 22.1 µM (inactive).
With `O=C1c2ccccc2C(O)(O)C1(O)C1(O)C(=O)c2ccccc2C1(O)O` (stereo not given), the GI50 in the test with CAKI-1 was 29.6 µM (inactive); in the test on HCT-116, 23.6 µM (inactive); in the test with HCT-15 it was 21.8 µM; in the test with HOP-62, 23.4 µM (inactive); in the test with HT-29 it was > 100 µM (inactive); with Hs-578T, > 100 µM (inactive). The GI50 is 16.8 µM (inactive) with MCF7; > 100 µM (inactive) in the test on MDA-MB-231; > 100 µM (inactive) in the test with NCI-H226; 20.8 µM (inactive) in the test on NCI-H23; 18.8 µM (inactive) in the test on NCI-H460; 25.1 µM (inactive) in the test with OVCAR-3. In addition, the GI50 in the test with SF-268 was > 100 µM (inactive); in the test with SK-OV-3 it was > 100 µM (inactive); in the test on SW-620, 35.3 µM (inactive); in the test on U-251 it was 37.2 µM (inactive); in the test on UACC-62, 86.9 µM (inactive); in the test on UO-31 it was 19.6 µM (inactive).
On to `CCCCCCCCCCCCCCCC(=O)ON1C(=S)NC(C)(c2ccccc2)C1=S` (stereo not given), for which the GI50 in the test with CAKI-1 was > 100 µM (inactive); in the test on HCT-116 it was > 100 µM (inactive); with HCT-15, 51.4 µM; with HOP-62, > 100 µM (inactive); with HT-29, 55.2 µM (inactive); in the test with Hs-578T, > 100 µM (inactive). The GI50 in the test on MCF7 is > 100 µM (inactive); in the test on MDA-MB-231, > 100 µM (inactive); in the test on MOLT-4, 33.5 µM (inactive); in the test with NCI-H226, 87.9 µM (inactive); in the test with NCI-H23, > 100 µM (inactive); in the test with NCI-H460, > 100 µM (inactive). The GI50 in the test with OVCAR-3 was > 100 µM (inactive); in the test on SF-268, 73.6 µM (inactive); with SK-OV-3, > 100 µM (inactive); in the test with UACC-62, > 100 µM (inactive); with UO-31 it was > 100 µM (inactive).
For the compound `CC(=O)n1cc(OP(=O)(Oc2ccccc2)Oc2ccccc2)c2ccccc21`, the GI50 with CAKI-1 is 13.1 µM (inactive); in the test with HCT-116, 21.4 µM (inactive); in the test on HCT-15 it was 29 µM; in the test on HT-29, 36 µM (inactive); in the test with Hs-578T it was 40.8 µM (inactive); in the test with MCF7 it was 10.1 µM (inactive). Moreover, the GI50 with MDA-MB-231 is 24.8 µM (inactive); in the test on MOLT-4, 16.9 µM (inactive); in the test with NCI-H226, 27.7 µM (inactive); in the test with NCI-H23, 33.3 µM (inactive); in the test on NCI-H460, 22.6 µM (inactive); in the test with OVCAR-3, 24.2 µM (inactive). The GI50 in the test on SF-268 is 19.7 µM (inactive); in the test with SW-620 it was 44.2 µM (inactive); with U-251, 33.5 µM (inactive); in the test with UACC-62, 16.9 µM (inactive); with UO-31, 22.1 µM (inactive).
With `CCc1nn(CN2CCN(C)CC2)c(=S)n1/N=C\c1ccc(-c2ccc([N+](=O)[O-])cc2)o1`, the GI50 is 74.5 µM (inactive) with CAKI-1; 58.5 µM (inactive) in the test with HCT-116; 61.9 µM with HCT-15; 28.4 µM (inactive) with HOP-62; > 100 µM (inactive) with HT-29; 56.9 µM (inactive) with Hs-578T. Besides, the GI50 with MCF7 was 40.5 µM (inactive); in the test with MDA-MB-231, 39.1 µM (inactive); with MOLT-4 it was 34.7 µM (inactive); with NCI-H226 it was 22.7 µM (inactive); in the test on NCI-H23, 34.9 µM (inactive); with NCI-H460, 57.4 µM (inactive). Further, the GI50 is 30.6 µM (inactive) in the test with OVCAR-3; 37.8 µM (inactive) with SF-268; 40.7 µM (inactive) in the test with SK-OV-3; 43.6 µM (inactive) in the test on U-251; 39 µM (inactive) in the test with UACC-62; 56.6 µM (inactive) with UO-31.
With `C/C=C/C(=O)N1C(=O)OC[C@@H]1c1ccccc1`, the GI50 in the test on CAKI-1 was 18.3 µM (inactive); with HCT-116, 19.9 µM (inactive); in the test on HCT-15, 23.3 µM; in the test on HOP-62, 20.4 µM (inactive); with HT-29 it was 19.2 µM (inactive); in the test with Hs-578T it was 24.8 µM (inactive). Besides, the GI50 in the test on MCF7 is 14.7 µM (inactive); with MDA-MB-231, 22 µM (inactive); with MOLT-4, 25.2 µM (inactive); with NCI-H226 it was 22.2 µM (inactive); in the test with NCI-H23, 17.2 µM (inactive); with OVCAR-3, 18 µM (inactive). The GI50 in the test on SF-268 is 20.5 µM (inactive); in the test on SK-OV-3, 18.2 µM (inactive); in the test on SW-620 it was 24.6 µM (inactive); in the test with U-251, 23.1 µM (inactive); with UO-31, 19.5 µM (inactive).
As to `Cc1ccc(C(=O)/C=C2\Nc3ccccc3SC2=O)c(C)c1`, the GI50 was 37.2 µM (inactive) in the test on CAKI-1; 38 µM (inactive) in the test with HCT-116; 20.8 µM in the test with HCT-15; 32.9 µM (inactive) in the test with HOP-62; 45.6 µM (inactive) in the test with HT-29; 32.6 µM (inactive) in the test on Hs-578T. The GI50 is 31 µM (inactive) in the test on MCF7; > 100 µM (inactive) in the test on MDA-MB-231; 37.7 µM (inactive) in the test with MOLT-4; 30.7 µM (inactive) in the test with NCI-H226; 36.9 µM (inactive) in the test on NCI-H23; 28.6 µM (inactive) in the test with NCI-H460. Further, the GI50 in the test with OVCAR-3 was 34.1 µM (inactive); with SF-268, 25.1 µM (inactive); in the test with SK-OV-3 it was 43.9 µM (inactive); in the test on U-251 it was 44.9 µM (inactive); with UACC-62, 32.7 µM (inactive); with UO-31, 32.5 µM (inactive).
Regarding `COc1ccc(OC)c(N2C(=O)/C(=C\c3ccccc3)SC2c2cc(OC)c(OC)c(OC)c2)c1` (stereo not given), the GI50 was > 84.3 µM (inactive) in the test on CAKI-1; > 100 µM (inactive) with HCT-116; 58.3 µM with HCT-15; > 100 µM (inactive) with HOP-62; > 87.3 µM (inactive) in the test with HT-29; > 78 µM (inactive) in the test on Hs-578T. Further, the GI50 in the test on MCF7 was 3.24 µM (inactive); in the test with MDA-MB-231 it was > 100 µM (inactive); in the test with MOLT-4, 52.6 µM (inactive); in the test on NCI-H226, > 100 µM (inactive); in the test on NCI-H23 it was > 80.5 µM (inactive); in the test with OVCAR-3 it was 62.4 µM (inactive). Also, the GI50 was > 100 µM (inactive) in the test with SF-268; > 100 µM (inactive) in the test with SK-OV-3; 46.6 µM (inactive) with SW-620; > 100 µM (inactive) in the test with U-251; 4.06 µM (inactive) in the test on UACC-62; > 89.7 µM (inactive) in the test with UO-31.
As for `COc1ccc(-n2c(C)nc3ccc(NC4OC(CO)C(O)C(O)C4O)cc3c2=O)cc1` (stereo not given), the GI50 was > 100 µM (inactive) in the test with CAKI-1; > 100 µM (inactive) in the test with HCT-116; > 100 µM in the test with HCT-15; > 100 µM (inactive) with HOP-62; > 100 µM (inactive) in the test on HT-29; > 100 µM (inactive) in the test on Hs-578T. In addition, the GI50 in the test with MCF7, in the test on MDA-MB-231, in the test on MOLT-4, with NCI-H226, with NCI-H23 and in the test on NCI-H460 was > 100 µM (inactive) throughout. In addition, the GI50 with OVCAR-3, with SF-268, with SW-620, with U-251, with UACC-62 and in the test with UO-31 was > 100 µM (inactive) each time.
Consider `CCOC(=O)C1CCC(=O)N1C(=O)c1ccccc1` (stereo not given), for which the GI50 with CAKI-1 is > 100 µM (inactive); with HCT-116, > 100 µM (inactive); with HCT-15, > 100 µM; in the test with HOP-62, > 100 µM (inactive); in the test on HT-29 it was > 100 µM (inactive); with Hs-578T, > 100 µM (inactive). Further, the GI50 with MCF7, in the test with MDA-MB-231, in the test on MOLT-4, with NCI-H226, with NCI-H23 and in the test on NCI-H460 was > 100 µM (inactive) throughout. Besides, the GI50 was > 100 µM (inactive) in the test with OVCAR-3; > 100 µM (inactive) with SF-268; > 100 µM (inactive) in the test on SW-620; > 100 µM (inactive) with U-251; 7.83 µM (inactive) in the test with UACC-62; > 100 µM (inactive) in the test on UO-31.
